One series relates to PC3-PSMA cells. Kind of series: Binding, uptake and co-localization of fluorophore-labeled aptamers (confocal microscopy, flow cytometry). The format is cell-based. The settings on record: for internalization by cells: AF488-A9, DY650-E07; for colocalization in endosomes: aptamers combined, co-incubation 1 h. On the procedure: To create targeted binary cytotoxins that selectively kill PSMA+/EGFR+ prostate cancer cells, the agents both accumulate in the same endosomal compartments.
Panels B-D show fluorescence micrographs of AF488-labled anti-PSMA apamer (Panel B) and a Dy650-labeled anti-EGFR aptamer (Panel C) following co-incubation with PC3-PSMA cells for 1 h. […] The binary agents are designed to selectively kill PSMA+/EGFR+ prostate cancer cells through the mechanism proposed here both accumulate in common endosomal compartments.
(In general: A flow cytometer gives signals particle by particle.)

Series [1] deals with SKBR3 breast cancer cells.
Experimental: Cellular viability was analyzed by flow cytometry after 72 h.
For series [2], the system named is SKBR3 breast cancer cells. Nature of the series: Release of disulfide-linked fluorophore from EGF or Herceptin conjugates, confocal microscopy. The format is cell-based. The settings on record: fluorophore linked via disulfide to Herceptin or EGF, ED86 at 10-fold higher concentration. The procedure:
In the middle panels, a non-targeted endosome disruptive peptide (ED86) was added. In the bottom panels, a targeted cholesterol modified endosome disruptive peptide (ED108) was added. […] In conjunction with our previous studies of disulfide-linked colchinol conjugates (see provisional application), these studies provide evidence that targeting of two distinct cell surface entities (e.g., two receptors or a receptor and membrane) with a cytotoxic conjugate and an endosome disruptive peptide can confer a synthetic lethal-type effect against cancer cell lines.

The source of these data is US9636419B2, “Targeting multiple receptors on a cell surface for specific cell targeting” (The University of Kansas, priority 2013, dated 2017).

Entries after “also recorded” stand apart in the source; their conditions may differ. Non-standard residues stand in square brackets, D forms with d. *: point of attachment. Cholesteryloxycarbonyl = CC(C)CCC[C@@H](C)[C@H]1CC[C@H]2[C@@H]3CC=C4C[C@@H](OC(=O)*)CC[C@]4(C)[C@H]3CC[C@]12C; mPEG = not defined here; Aib = CC(C)(N)C(=O)O; βAla = NCCC(=O)O

Regarding “A9: PSMA-binding aptamer, 2′F RNA (GGGACCGAAAAAGACCUGACUUCUAUACUAAGUCUACGUUCCC; 2'-fluoro modified RNA, pattern not given here) [Compound A9]”, in the series with PC3-PSMA cells, the internalization by cells result is “internalized by PC3-PSMA cells” and the colocalization in endosomes entry is “colocalize in endosomes”.

Regarding “Cholesterol carbamate-(βAla)2-(Glu)2-mPEG-(βAla)4-(Aib)4-(Trp)2-Ala-Trp-Tyr-(Pro)2-Val-Val-CONH2 (Cholesteryloxycarbonyl-[βAla][βAla]EE[mPEG][βAla][βAla][βAla][βAla][Aib][Aib][Aib][Aib]WWAWYPPVV-NH2; reading uncertain) [ED108]”, the “effect on cytotoxicity of the Herceptin-colchinol methyl ether disulfide conjugate” value in series [1] is recorded as “synergistically enhances cytotoxicity”. In addition, in series [2], the “release of disulfide-linked fluorophore into cytoplasm” value is “Release of the fluorophore from EGF or Herceptin into the cytosol and nucleus was observed; also recorded: release of a disulfide-linked fluorophore from the antibody Herceptin into the cytoplasm”.

Turning to “E07: EGFR-binding aptamer, 2′F RNA (GGACGGAUUUAAUCGCCGUAGAAAGCAUGUCAAAGCCGGAACCGUCC; 2'-fluoro modified RNA, pattern not given here) [Compound E07]”, in the series with PC3-PSMA cells, the internalization by cells result is “internalized by PC3-PSMA cells” and the colocalization in endosomes result is recorded as “colocalize in endosomes”.

Regarding “H2N-(Aib)4-(Trp)2-Ala-Trp-Tyr-(Pro)2-Val-Val-CONH2 (H-[Aib][Aib][Aib][Aib]WWAWYPPVV-NH2; SMILES CC(C)[C@H](NC(=O)[C@@H](NC(=O)[C@@H]1CCCN1C(=O)[C@@H]1CCCN1C(=O)[C@H](Cc1ccc(O)cc1)NC(=O)[C@H](Cc1c[nH]c2ccccc12)NC(=O)[C@H](C)NC(=O)[C@H](Cc1c[nH]c2ccccc12)NC(=O)[C@H](Cc1c[nH]c2ccccc12)NC(=O)C(C)(C)NC(=O)C(C)(C)NC(=O)C(C)(C)NC(=O)C(C)(C)N)C(C)C)C(N)=O) [ED86]”, the “release of disulfide-linked fluorophore into cytoplasm” value in series [2] is on record as “release was not observed”.
